Values of other authors as cited in patent US20040106141A1, “Methods and materials for examining pathways associated with glioblastoma progression” (The Regents of the University of California, priority 2002, published 2004).

Test system: SKMG-3 cells
Settings: unstimulated SKMG-3 cells

In the case of `CNc1cc2c(Nc3cccc(Br)c3)ncnc2cn1` [PD158780], the “constitutive phosphorylation of Erk” value is listed as “reduces” and the “constitutive phosphorylation of the receptor (EGFR)” value (GBM cell line with EGFR gene amplification) is listed as “reduces”.
